Results reported in the NIST ThermoML archive (doi:10.1021/je700152c).
Numbers after ± are expanded uncertainties.

Assay: molar heat capacity at constant pressure
Conditions: 101.33 kPa

CCCCn1cc[n+](C)c1.Cc1ccc(S(=O)(=O)[O-])cc1 [1-butyl-3-methylimidazolium tosylate]
Conditions	molar heat capacity at constant pressure [J/K/mol]
5 K, Crystal 2	2.54 ± 0.13
10 K, Crystal 2	11.91 ± 0.42
15 K, Crystal 2	24.31 ± 0.72
20 K, Crystal 2	37.67 ± 0.95
25 K, Crystal 2	51.27 ± 1.1
30 K, Crystal 2	64.46 ± 0.85
35 K, Crystal 2	76.73 ± 0.96
40 K, Crystal 2	87.97 ± 1.1
45 K, Crystal 2	98.44 ± 1.2
50 K, Crystal 2	108.3 ± 1.2
60 K, Crystal 2	125.9 ± 1.5
70 K, Crystal 2	141.6 ± 1.6
80 K, Crystal 2	156 ± 1.7
90 K, Crystal 2	169.3 ± 1.7
100 K, Crystal 2	181.9 ± 1.8
105 K, Crystal 2	188.1 ± 1.9
110 K, Crystal 2	194.1 ± 1.9
120 K, Crystal 2	206 ± 2.1
130 K, Crystal 2	218 ± 2.2
140 K, Crystal 2	230 ± 2.2
150 K, Crystal 2	241.9 ± 2.3
152.77 K, Crystal 1	238.4 ± 2.3
152.77 K, Crystal 2	245.2 ± 2.3
160 K, Crystal 1	246.2 ± 2.4
170 K, Crystal 1	257 ± 2.5
180 K, Crystal 1	267.8 ± 2.6
190 K, Crystal 1	278.8 ± 2.7
200 K, Crystal 1	289.9 ± 2.7
210 K, Crystal 1	301.5 ± 2.8
220 K, Crystal 1	313.3 ± 2.9
230 K, Crystal 1	335.4 ± 3.1
240 K, Crystal 1	348.3 ± 3.2
250 K, Crystal 1	359.9 ± 3.2
260 K, Crystal 1	371.2 ± 3.4
270 K, Crystal 1	382.3 ± 3.5
280 K, Crystal 1	393.3 ± 3.6
290 K, Crystal 1	404.1 ± 3.7
298.15 K, Crystal 1	412.7 ± 3.7
300 K, Crystal 1	414.6 ± 3.7
310 K, Crystal 1	425 ± 3.8
320 K, Crystal 1	435.3 ± 3.9
330 K, Crystal 1	445.3 ± 4
340 K, Crystal 1	455.1 ± 4.1
343.89 K, Crystal 1	458.7 ± 4.1
343.89 K, Liquid	543.4 ± 4.7
350 K, Liquid	548.4 ± 4.8
360 K, Liquid	556 ± 4.8
370 K, Liquid	563.1 ± 4.9
380 K, Liquid	569.8 ± 5
